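Dose response: 5 concentrations. Exposure: 48 h. Format: 96-well plates. Endpoint: linear interpolation; highest concentration if not reached. Abbreviation: GI50, concentration required for 50% inhibition of growth.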 Calls of active or inactive are those of the source. Rule as the data show it: active = GI50 up to about 1.1 µM and inactive = higher.
How the values were obtained:
Assay in all cases: NCI-60 cell line screen, 48 h
BT-549 = test system: BT-549
CCRF-CEM = test system: CCRF-CEM
DU-145 = test system: DU-145
EKVX = test system: EKVX
HCT-116 = test system: HCT-116
HOP-92 = test system: HOP-92
MCF7 = test system: MCF7
MDA-N = test system: MDA-N
MOLT-4 = test system: MOLT-4
NCI-H460 = test system: NCI-H460
NCI/ADR-RES = test system: NCI/ADR-RES
OVCAR-5 = test system: OVCAR-5
SF-295 = test system: SF-295
SK-OV-3 = test system: SK-OV-3
UACC-257 = test system: UACC-257
NCI-H522 = test system: NCI-H522
SR = test system: SR

## CO/C=C(/C(=O)OC)c1ccccc1Oc1c(F)c(F)c(F)c(F)c1F
BT-549
  GI50: > 100 µM (inactive)
CCRF-CEM
  GI50: 30.1 µM (inactive)
DU-145
  GI50: 33 µM (inactive)
EKVX
  GI50: 32.7 µM (inactive)
HCT-116
  GI50: 22.9 µM (inactive)
HOP-92
  GI50: 19.6 µM (inactive)
MCF7
  GI50: 38.2 µM (inactive)
MDA-N
  GI50: 41.6 µM (inactive)
MOLT-4
  GI50: 7.69 µM (inactive)
NCI-H460
  GI50: 31.6 µM (inactive)
NCI/ADR-RES
  GI50: 40.7 µM (inactive)
OVCAR-5
  GI50: > 100 µM (inactive)
SF-295
  GI50: 54.5 µM (inactive)
SK-OV-3
  GI50: 47.9 µM (inactive)
UACC-257
  GI50: 24.9 µM (inactive)

## COc1ccccc1/N=N/C(=N/NC(=O)c1ccc(C)cc1)c1ccc(N(CCC#N)CCC#N)cc1OC
BT-549
  GI50: 32.3 µM (inactive)
CCRF-CEM
  GI50: 18.6 µM (inactive)
DU-145
  GI50: 40.8 µM (inactive)
EKVX
  GI50: 26.4 µM (inactive)
HCT-116
  GI50: 25.1 µM (inactive)
HOP-92
  GI50: 27.4 µM (inactive)
MCF7
  GI50: 13.4 µM (inactive)
MDA-N
  GI50: 23.2 µM (inactive)
MOLT-4
  GI50: 19.1 µM (inactive)
NCI-H460
  GI50: 29.5 µM (inactive)
NCI-H522
  GI50: 33.7 µM (inactive)
NCI/ADR-RES
  GI50: > 100 µM (inactive)
OVCAR-5
  GI50: > 100 µM (inactive)
SF-295
  GI50: 41 µM (inactive)
SK-OV-3
  GI50: 37.1 µM (inactive)
UACC-257
  GI50: 38.3 µM (inactive)

## COC1=CC(=O)c2c(O)ccc(O)c2C1=O
BT-549
  GI50: 2.44 µM (inactive)
CCRF-CEM
  GI50: 8.57 µM (inactive)
DU-145
  GI50: 1.78 µM (inactive)
EKVX
  GI50: 20.2 µM (inactive)
HCT-116
  GI50: 4.6 µM (inactive)
HOP-92
  GI50: 18.6 µM (inactive)
MCF7
  GI50: 2.82 µM (inactive)
MDA-N
  GI50: 0.7 µM (active)
MOLT-4
  GI50: 13.8 µM (inactive)
NCI-H460
  GI50: 5.04 µM (inactive)
NCI-H522
  GI50: 11.5 µM (inactive)
NCI/ADR-RES
  GI50: 19.8 µM (inactive)
OVCAR-5
  GI50: 18.4 µM (inactive)
SF-295
  GI50: 2 µM (inactive)
SK-OV-3
  GI50: 18.6 µM (inactive)
UACC-257
  GI50: 1.52 µM (inactive)

## Nc1ccc(S(=O)(=O)C23CC4CC(CC(C4)C2)C3)cc1
BT-549
  GI50: > 100 µM (inactive)
CCRF-CEM
  GI50: 49.8 µM (inactive)
DU-145
  GI50: 78 µM (inactive)
EKVX
  GI50: > 100 µM (inactive)
HCT-116
  GI50: > 100 µM (inactive)
MCF7
  GI50: > 100 µM (inactive)
NCI-H460
  GI50: 74.3 µM (inactive)
NCI-H522
  GI50: > 100 µM (inactive)
NCI/ADR-RES
  GI50: > 100 µM (inactive)
OVCAR-5
  GI50: > 100 µM (inactive)
SF-295
  GI50: > 100 µM (inactive)
SK-OV-3
  GI50: > 100 µM (inactive)
SR
  GI50: 61.7 µM (inactive)
UACC-257
  GI50: > 100 µM (inactive)

## Cn1ccc(C(=O)NCCOCCNC(=O)c2ccn(C)c(=O)c2O)c(O)c1=O
BT-549
  GI50: > 100 µM (inactive)
DU-145
  GI50: > 100 µM (inactive)
HCT-116
  GI50: > 100 µM (inactive)
HOP-92
  GI50: > 100 µM (inactive)
MDA-N
  GI50: > 100 µM (inactive)
NCI-H460
  GI50: > 100 µM (inactive)
NCI-H522
  GI50: > 100 µM (inactive)
NCI/ADR-RES
  GI50: > 100 µM (inactive)
UACC-257
  GI50: > 100 µM (inactive)

## CC1=C/C(O)CC(=O)Cc2nc(co2)C(=O)N2CCC=C2C(=O)OC(C(C)C)C(C)/C=C\C(=O)NC/C=C\1 (stereo not drawn)
BT-549
  GI50: 20.5 µM (inactive)
CCRF-CEM
  GI50: 21.6 µM (inactive)
DU-145
  GI50: 27.1 µM (inactive)
EKVX
  GI50: 18.8 µM (inactive)
HCT-116
  GI50: 14.5 µM (inactive)
MCF7
  GI50: 19.1 µM (inactive)
MDA-N
  GI50: 14.2 µM (inactive)
MOLT-4
  GI50: 16.6 µM (inactive)
NCI-H460
  GI50: 54 µM (inactive)
NCI-H522
  GI50: 0.176 µM (active)
OVCAR-5
  GI50: 18.8 µM (inactive)
SF-295
  GI50: 48 µM (inactive)
SK-OV-3
  GI50: 53.1 µM (inactive)
SR
  GI50: 15 µM (inactive)
UACC-257
  GI50: 35.3 µM (inactive)

## CN1CCN(CCCN2c3ccccc3Sc3ccc(C(F)(F)F)cc32)CC1
BT-549
  GI50: 12.1 µM (inactive)
DU-145
  GI50: 10.5 µM (inactive)
EKVX
  GI50: 10.6 µM (inactive)
HCT-116
  GI50: 4.25 µM (inactive)
MCF7
  GI50: 4.61 µM (inactive)
MDA-N
  GI50: 3.2 µM (inactive)
MOLT-4
  GI50: 2.92 µM (inactive)
NCI-H460
  GI50: 2.24 µM (inactive)
NCI/ADR-RES
  GI50: 8.22 µM (inactive)
OVCAR-5
  GI50: 11.2 µM (inactive)
SF-295
  GI50: 5.79 µM (inactive)
SK-OV-3
  GI50: 13.5 µM (inactive)
UACC-257
  GI50: 1.91 µM (inactive)
